Some test systems named below: ACHN renal; NCI-H226 lung; M14 melanoma; U251 CNS; KM12 colon; SNB-19 CNS; RPMI-8226 leukemia; NCI-H522 lung; DU-145 prostate; IGROV1 ovarian.
Holding throughout (assay): NCI tumour cell line growth inhibition, 48 h

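Five concentrations, 48 hours, 96-well plates. GI50 marks 50% less growth. TGI denotes the concentration required for complete inhibition of growth.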

Consider `CC(=O)c1ccccc1NS(=O)(=O)c1ccc2nc(C)n(NS(=O)(=O)c3ccccc3C(C)=O)c(=O)c2c1`, for which the TGI in the test on ACHN renal, in the test with NCI-H226 lung, in the test with M14 melanoma, in the test on U251 CNS, in the test on KM12 colon and with SNB-19 CNS was over 100 µM in each case. Moreover, the TGI with RPMI-8226 leukemia, in the test on NCI-H522 lung, in the test with DU-145 prostate and in the test with IGROV1 ovarian was over 100 µM throughout.

With `CNc1nc2c(C)ccc3[nH]c(N(C)C)nc3c-2n1`, the TGI in the test with ACHN renal was 76.8 µM; in the test with NCI-H226 lung, over 100 µM; with M14 melanoma, 51.1 µM; with U251 CNS, over 100 µM; with KM12 colon, over 100 µM; with SNB-19 CNS, 65 µM. Also, the TGI in the test on RPMI-8226 leukemia was 61.2 µM; in the test with NCI-H522 lung, over 100 µM; in the test with DU-145 prostate, over 100 µM; in the test on IGROV1 ovarian it was over 100 µM.

Turning to `NC(=O)C1CCCN1C(=O)N(CCCl)N=O` (stereo not given), the TGI with ACHN renal, in the test on NCI-H226 lung, with M14 melanoma, in the test with U251 CNS, in the test with KM12 colon and in the test with SNB-19 CNS was over 100 µM each time. For the same compound, the TGI in the test on RPMI-8226 leukemia, in the test on NCI-H522 lung, in the test on DU-145 prostate and with IGROV1 ovarian was over 100 µM in each case.

Take `CCOC(=O)C1=C(C)NC(C)=C(C(=O)OCC)C1c1ccc(C)cc1`: the TGI in the test with ACHN renal, in the test on NCI-H226 lung, in the test on M14 melanoma, in the test on U251 CNS, in the test on KM12 colon and in the test with SNB-19 CNS was over 100 µM in each case. Moreover, the TGI is 85.8 µM in the test on RPMI-8226 leukemia, 94.2 µM with NCI-H522 lung, over 100 µM with DU-145 prostate and over 100 µM in the test with IGROV1 ovarian.

As to `CSc1ccc2c(cc1=O)[C@@H](NC(=O)c1ccc([N+](=O)[O-])cc1)CCc1cc(O)c(O)c(O)c1-2`, the TGI is over 100 µM in the test with ACHN renal; over 100 µM with NCI-H226 lung; over 100 µM in the test with M14 melanoma; over 100 µM in the test with U251 CNS; 37.4 µM with KM12 colon; over 100 µM with SNB-19 CNS. The TGI in the test with RPMI-8226 leukemia, in the test with NCI-H522 lung, in the test on DU-145 prostate and with IGROV1 ovarian was over 100 µM in each case.

Turning to `O=S(=O)(O)c1ccccc1N=Nc1ccc(N=Nc2c(O)ccc3ccccc23)c(S(=O)(=O)O)c1`, the TGI with ACHN renal, in the test on NCI-H226 lung, in the test on M14 melanoma, with U251 CNS, in the test on KM12 colon and in the test on SNB-19 CNS was over 100 µM in each case. Also, the TGI with RPMI-8226 leukemia, in the test with NCI-H522 lung, in the test with DU-145 prostate and in the test with IGROV1 ovarian was over 100 µM throughout.

Take `Cc1cccc(C(=O)O)c1CC1NCCC2c3ccccc3NC12` (stereo not given): the TGI with ACHN renal, with NCI-H226 lung, in the test on M14 melanoma, in the test on U251 CNS, in the test on KM12 colon and with SNB-19 CNS was over 100 µM each time. The TGI in the test with RPMI-8226 leukemia, in the test on NCI-H522 lung, with DU-145 prostate and in the test on IGROV1 ovarian was over 100 µM throughout.

As for `O=S(=O)(/N=C(\NO)Nc1ccc(Cl)cc1)C1CC=C(c2ccon2)S1` (stereo not given), the TGI in the test with ACHN renal was over 100 µM; with NCI-H226 lung, over 79.8 µM; in the test with M14 melanoma, over 100 µM; in the test on U251 CNS, over 100 µM; in the test with KM12 colon, over 100 µM; in the test on SNB-19 CNS, over 100 µM. In addition, the TGI in the test on RPMI-8226 leukemia was over 50.3 µM; in the test on NCI-H522 lung, 12.8 µM; with DU-145 prostate, over 100 µM; with IGROV1 ovarian, over 72.3 µM.

For the compound `COc1ccccc1/C=C/c1nc2ccccc2o1`, the TGI in the test with ACHN renal, in the test with NCI-H226 lung, in the test on M14 melanoma, in the test with U251 CNS, in the test with KM12 colon and with SNB-19 CNS was over 10 µM each time. Besides, the TGI in the test with RPMI-8226 leukemia, in the test with NCI-H522 lung, in the test with DU-145 prostate and in the test with IGROV1 ovarian was over 10 µM each time.

Regarding `CC(=O)OC1[C@H](n2ccnc2)C[C@H]2[C@@H]3CC=C4CC(N5CCCC5)CC[C@]4(C)[C@H]3CC[C@]12C` (stereo not given in full), the TGI with ACHN renal was over 100 µM; in the test with NCI-H226 lung, over 100 µM; in the test with M14 melanoma, 61.6 µM; with U251 CNS it was over 100 µM; in the test with KM12 colon, over 100 µM; in the test with SNB-19 CNS, over 100 µM. The TGI in the test on RPMI-8226 leukemia, in the test on NCI-H522 lung, in the test with DU-145 prostate and in the test on IGROV1 ovarian was over 100 µM each time.

For the compound `C/C(=C1\C(=O)C(c2ccccc2)N(c2ccccc2)C1=O)c1ccc(Cl)cc1` (stereo not given), the TGI in the test with ACHN renal was 45 µM; in the test with NCI-H226 lung it was 43 µM; in the test with M14 melanoma, 42.3 µM; in the test with U251 CNS it was 29.4 µM; in the test with KM12 colon, 57.1 µM; in the test on SNB-19 CNS, 32.7 µM. The TGI turned out to be 38.1 µM in the test with RPMI-8226 leukemia, 38.7 µM in the test on NCI-H522 lung, 34 µM in the test on DU-145 prostate and 40.5 µM in the test with IGROV1 ovarian.

As to `O=C(c1ccccc1)c1nn(-c2ccccc2)c2nc3nc(-c4ccccc4)cc(=O)n3nc12`, the GI50 in the test with ACHN renal was 37.1 µM; with NCI-H226 lung it was 47.4 µM; with M14 melanoma it was 27.3 µM; in the test on U251 CNS, 32.6 µM; in the test with KM12 colon it was 28.3 µM; in the test with SNB-19 CNS, 42.7 µM. For the same compound, the GI50 was 21.4 µM with RPMI-8226 leukemia, 20.6 µM with NCI-H522 lung, 23.8 µM in the test with DU-145 prostate and 25.6 µM with IGROV1 ovarian. The TGI with ACHN renal is over 100 µM; in the test with NCI-H226 lung, over 100 µM; with M14 melanoma, 81.4 µM; with U251 CNS it was over 100 µM; in the test with KM12 colon, 82.1 µM; with SNB-19 CNS it was over 100 µM. For the same compound, the TGI in the test on RPMI-8226 leukemia is 50.8 µM; in the test on NCI-H522 lung it was 58.5 µM; in the test with DU-145 prostate, 58.2 µM; in the test with IGROV1 ovarian, over 100 µM.

These data come from PubChem BioAssay (NCI).
